Data published in the NIST ThermoML archive (doi:10.1016/j.jct.2009.04.002).
Where “and” joins values, the source holds several entries; their conditions need not be identical. Equal entries are not always repeated. ± gives the expanded uncertainty stated by the source.

Details: Liquid

CC(C)CCCCCCCOC(=O)c1ccccc1C(=O)OCCCCCCCC(C)C
Details	mass density, SVM3000 rotational viscometer	viscosity, Rotational Automated Viscometer
278.15 K	977.3 ± 14 kg/m3 and 977.5 ± 14 kg/m3 and 977.1 ± 14 kg/m3	404.6 ± 8.4 mPa·s and 413.1 ± 8.4 mPa·s and 412.2 ± 8.3 mPa·s
283.15 K	973.8 ± 14 kg/m3 and 974 ± 14 kg/m3 and 973.5 ± 14 kg/m3	261.2 ± 5.5 mPa·s and 267 ± 5.4 mPa·s and 266.2 ± 5.4 mPa·s
288.15 K	970.2 ± 14 kg/m3 and 970.4 ± 14 kg/m3 and 969.9 ± 14 kg/m3	175.9 ± 3.7 mPa·s and 179.4 ± 3.6 mPa·s and 178.9 ± 3.6 mPa·s
293.15 K	966.7 ± 14 kg/m3 and 966.9 ± 14 kg/m3 and 966.4 ± 14 kg/m3	122.3 ± 2.5 mPa·s and 124.5 ± 2.5 mPa·s and 124.4 ± 2.5 mPa·s
298.15 K	963.2 ± 14 kg/m3 and 963.4 ± 14 kg/m3 and 962.9 ± 14 kg/m3	87.52 ± 1.8 mPa·s and 89.06 ± 1.8 mPa·s and 88.94 ± 1.8 mPa·s
303.15 K	959.7 ± 13 kg/m3 and 959.8 ± 13 kg/m3 and 959.4 ± 13 kg/m3	64.31 ± 1.3 mPa·s and 65.45 ± 1.3 mPa·s and 65.32 ± 1.3 mPa·s
308.15 K	956.2 ± 13 kg/m3 and 956.3 ± 13 kg/m3 and 955.9 ± 13 kg/m3	48.46 ± 1 mPa·s and 49.29 ± 0.99 mPa·s and 49.16 ± 0.99 mPa·s
313.15 K	952.7 ± 13 kg/m3 and 952.8 ± 13 kg/m3 and 952.4 ± 13 kg/m3	37.35 ± 0.77 mPa·s and 37.97 ± 0.76 mPa·s and 37.87 ± 0.76 mPa·s
318.15 K	949.2 ± 13 kg/m3 and 949.3 ± 13 kg/m3 and 948.9 ± 13 kg/m3	29.38 ± 0.61 mPa·s and 29.83 ± 0.6 mPa·s and 29.75 ± 0.6 mPa·s
323.15 K	945.7 ± 13 kg/m3 and 945.8 ± 13 kg/m3 and 945.3 ± 13 kg/m3	23.51 ± 0.49 mPa·s and 23.87 ± 0.48 mPa·s and 23.79 ± 0.48 mPa·s
328.15 K	942.2 ± 13 kg/m3 and 941.8 ± 13 kg/m3	19.13 ± 0.4 mPa·s and 19.41 ± 0.39 mPa·s and 19.35 ± 0.39 mPa·s

Details	mass density, Vibrating tube method	viscosity, Falling or rolling sphere viscometry
283.15 K, 100 kPa	973.4 ± 1.4 kg/m3 and 973.5 ± 1.4 kg/m3 and 973.1 ± 1.4 kg/m3	–
283.15 K, 1000 kPa	973.7 ± 1.4 kg/m3 and 974 ± 1.4 kg/m3 and 973.6 ± 1.4 kg/m3	–
283.15 K, 5000 kPa	975.9 ± 1.4 kg/m3 and 976.2 ± 1.4 kg/m3 and 975.7 ± 1.4 kg/m3	–
283.15 K, 10000 kPa	978.4 ± 1.4 kg/m3 and 978.8 ± 1.4 kg/m3 and 978.3 ± 1.4 kg/m3	–
283.15 K, 20000 kPa	983.5 ± 1.4 kg/m3 and 983.9 ± 1.4 kg/m3 and 983.4 ± 1.4 kg/m3	–
283.15 K, 30000 kPa	988.3 ± 1.4 kg/m3 and 988.6 ± 1.4 kg/m3 and 988.1 ± 1.4 kg/m3	–
283.15 K, 40000 kPa	992.8 ± 1.4 kg/m3 and 993.1 ± 1.4 kg/m3 and 992.7 ± 1.4 kg/m3	–
283.15 K, 50000 kPa	997.2 ± 1.4 kg/m3 and 997.5 ± 1.4 kg/m3 and 997 ± 1.4 kg/m3	–
283.15 K, 60000 kPa	1001.4 ± 1.4 kg/m3 and 1001.7 ± 1.4 kg/m3 and 1001.3 ± 1.4 kg/m3	–
283.15 K, 70000 kPa	1005.4 ± 1.4 kg/m3 and 1005.8 ± 1.4 kg/m3	–
298.15 K, 100 kPa	963 ± 1.4 kg/m3 and 963.2 ± 1.4 kg/m3 and 962.8 ± 1.4 kg/m3	–
298.15 K, 1000 kPa	963.4 ± 1.4 kg/m3 and 963.8 ± 1.4 kg/m3 and 963.3 ± 1.4 kg/m3	–
298.15 K, 5000 kPa	965.7 ± 1.4 kg/m3 and 966.1 ± 1.4 kg/m3	–
298.15 K, 10000 kPa	968.4 ± 1.4 kg/m3 and 968.9 ± 1.4 kg/m3 and 968.5 ± 1.4 kg/m3	–
298.15 K, 20000 kPa	973.7 ± 1.4 kg/m3 and 974.2 ± 1.4 kg/m3 and 973.8 ± 1.4 kg/m3	–
298.15 K, 30000 kPa	978.7 ± 1.4 kg/m3 and 979.1 ± 1.4 kg/m3	–
298.15 K, 40000 kPa	983.4 ± 1.4 kg/m3 and 983.8 ± 1.4 kg/m3	–
298.15 K, 50000 kPa	988 ± 1.4 kg/m3 and 988.3 ± 1.4 kg/m3 and 987.9 ± 1.4 kg/m3	–
298.15 K, 60000 kPa	992.4 ± 1.4 kg/m3 and 992.8 ± 1.4 kg/m3 and 992.3 ± 1.4 kg/m3	–
298.15 K, 70000 kPa	996.6 ± 1.4 kg/m3 and 997 ± 1.4 kg/m3	–
303.15 K, 100 kPa	–	65 ± 5.3 mPa·s and 64.6 ± 5.2 mPa·s
303.15 K, 1000 kPa	–	66.4 ± 5.4 mPa·s and 66 ± 5.3 mPa·s
303.15 K, 5000 kPa	–	72.9 ± 5.9 mPa·s and 72.6 ± 5.9 mPa·s
303.15 K, 10000 kPa	–	82 ± 6.7 mPa·s and 81.7 ± 6.7 mPa·s
303.15 K, 20000 kPa	–	103 ± 9 mPa·s
303.15 K, 30000 kPa	–	130 ± 11 mPa·s and 129 ± 11 mPa·s
303.15 K, 40000 kPa	–	162 ± 14 mPa·s
303.15 K, 50000 kPa	–	202 ± 18 mPa·s and 201 ± 18 mPa·s
303.15 K, 60000 kPa	–	251 ± 24 mPa·s and 250 ± 24 mPa·s
313.15 K, 100 kPa	–	38 ± 3.1 mPa·s and 38.5 ± 3.1 mPa·s
313.15 K, 1000 kPa	–	38.7 ± 3.1 mPa·s and 39.3 ± 3.2 mPa·s
313.15 K, 5000 kPa	–	42.2 ± 3.4 mPa·s and 42.8 ± 3.5 mPa·s
313.15 K, 10000 kPa	–	46.9 ± 3.8 mPa·s and 47.6 ± 3.8 mPa·s
313.15 K, 20000 kPa	–	57.8 ± 4.7 mPa·s and 58.8 ± 4.7 mPa·s
313.15 K, 30000 kPa	–	71.1 ± 5.8 mPa·s and 72.4 ± 5.9 mPa·s
313.15 K, 40000 kPa	–	87.2 ± 7.2 mPa·s and 88.8 ± 7.3 mPa·s
313.15 K, 50000 kPa	–	107 ± 9 mPa·s and 109 ± 9 mPa·s
313.15 K, 60000 kPa	–	130 ± 11 mPa·s and 132 ± 11 mPa·s
323.15 K, 100 kPa	945.4 ± 1.4 kg/m3 and 945.7 ± 1.4 kg/m3 and 945.2 ± 1.4 kg/m3	–
323.15 K, 1000 kPa	945.8 ± 1.4 kg/m3 and 946.3 ± 1.4 kg/m3	–
323.15 K, 5000 kPa	948.4 ± 1.4 kg/m3 and 948.8 ± 1.4 kg/m3 and 948.3 ± 1.4 kg/m3	–
323.15 K, 10000 kPa	951.5 ± 1.4 kg/m3 and 951.9 ± 1.4 kg/m3 and 951.4 ± 1.4 kg/m3	–
323.15 K, 20000 kPa	957.4 ± 1.4 kg/m3 and 957.9 ± 1.4 kg/m3	–
323.15 K, 30000 kPa	962.9 ± 1.4 kg/m3 and 963.3 ± 1.4 kg/m3 and 962.8 ± 1.4 kg/m3	–
323.15 K, 40000 kPa	968.1 ± 1.4 kg/m3 and 968.5 ± 1.4 kg/m3 and 968 ± 1.4 kg/m3	–
323.15 K, 50000 kPa	973.1 ± 1.4 kg/m3 and 973.4 ± 1.4 kg/m3 and 973 ± 1.4 kg/m3	–
323.15 K, 60000 kPa	977.8 ± 1.4 kg/m3 and 978.1 ± 1.4 kg/m3 and 977.7 ± 1.4 kg/m3	–
323.15 K, 70000 kPa	982.3 ± 1.4 kg/m3 and 982.6 ± 1.4 kg/m3 and 982.2 ± 1.4 kg/m3	–
333.15 K, 100 kPa	938.4 ± 1.4 kg/m3 and 938.7 ± 1.4 kg/m3 and 938.2 ± 1.4 kg/m3	16.1 ± 1.3 mPa·s and 15.5 ± 1.3 mPa·s and 16 ± 1.3 mPa·s
333.15 K, 1000 kPa	938.9 ± 1.4 kg/m3 and 939.3 ± 1.4 kg/m3 and 938.8 ± 1.4 kg/m3	16.4 ± 1.3 mPa·s and 15.7 ± 1.3 mPa·s and 16.3 ± 1.3 mPa·s
333.15 K, 5000 kPa	941.6 ± 1.4 kg/m3 and 942 ± 1.4 kg/m3 and 941.5 ± 1.4 kg/m3	17.7 ± 1.4 mPa·s and 17 ± 1.4 mPa·s and 17.6 ± 1.4 mPa·s
333.15 K, 10000 kPa	–	19.5 ± 1.6 mPa·s and 18.6 ± 1.5 mPa·s and 19.3 ± 1.6 mPa·s
